Read-outs that look alike come from different tables or passages of the source. No end group written: not given here.

Assay [1] has as its system peptide epitope-specific interferon-γ releasing effector cells. Briefly: IFN-γ ELISPOT, Example 4 (PBL or TIL from cancer patients). Format: cell-based, human. The protocol:
To extend the sensitivity of the ELISPOT assay, PBL were stimulated once in vitro prior to analysis. At day 0, PBL or crushed lymph nodes were thawed and plated as 2×10^6 cells in 2 ml/well in 24-well plates (Nunc, Roskilde, Denmark) in x-vivo medium (Bio Whittaker, Walkersville, Md.), […] heat-inactivated human serum, and 2 mM of L-glutamine in the presence of 10 μM of peptide. Two days later 20 IU/ml recombinant interleukin-2 (IL-2) (Chiron, Ratingen, Germany) was added to the cultures. The cultured cells were tested for reactivity in the ELISPOT on day 10.
The ELISPOT assay was used to quantify peptide epitope-specific interferon-γ releasing effector cells as previously described (16). Briefly, nitrocellulose bottomed 96-well plates (MultiScreen MAIP N45, Millipore, Hedehusene, Denmark) were coated with anti-IFN-γ antibody (1-D1K, Mabtech, Nacka, Sweden). The wells were washed, blocked by X-vivo medium, and the cells were added in duplicates at different cell concentrations. The peptides were then added to each well and the plates were incubated overnight. The following day, media was discarded and the wells were washed prior to addition of biotinylated secondary antibody (7-B6-1-Biotin, Mabtech). The plates were incubated for 2 hours, washed, and avidin-alkaline phosphatase conjugate (Calbiochem, Life Technologies, Inc. San Diego, Calif., USA) was added to each well. The plates were incubated at room temperature for one hour, washed, and the enzyme substrate NBT/BCIP (DakoCytomation Norden A/S, Glostrup, Denmark) was added to each well and incubated at RT for 5-10 min. Upon the emergence of dark purple spots, the reaction was terminated by washing with tap-water. The spots were counted using the ImmunoSpot® Series 2.0 Analyzer (CTL Analyzers, LLC, Cleveland, US) and the peptide specific CTL frequency could be calculated from the numbers of spot-forming cells. All assays were performed in duplicates for each peptide antigen.

A further assay concerns the target HLA-A3 (Homo sapiens, UniProt P04439). The assay is described as follows: Assembly assay, HLA-A3. Format: binding. The settings on record: for EC50: Table 4, HLA-A3, read-out: C50. The protocol:
(§1) The binding affinity of synthetic peptides (Invitrogen, Carlsbad, Calif., USA) to HLA-A1, -A2, A3, or -A11 molecules metabolically labeled with [^35S]-methionine was measured in the assembly assay, as described previously (12). The assay is based on peptide-mediated stabilization of empty HLA molecules released upon cell lysis, from the TAP-deficient cell lines. Stably folded HLA-molecules were immune-precipitated using the HLA class I-specific, conformation-dependent mAb W6/32, and separated by isoelectric focusing (IEF) gel electrophoresis. MHC heavy chain bands were quantified using the ImageGauge Phosphorimager program (FUJI photo film Co., Carrollton, Tex., USA). The intensity of the band is proportional to the amount of peptide-bound class I MHC complex recovered during the assay. Subsequently, the extent of stabilization of the HLA-molecule is directly related to the binding affinity of the added peptide. The peptide concentration used to analyze the recovery of the HLA-molecules was 40, 4, 0.4, 0.04 μM for HLA-A1 and HLA-A11, and 100, 10, 1, 0.1, 0.01 μM for HLA-A2 and HLA-A3. The C50 value was subsequently calculated for each peptide as the peptide concentration sufficient for half maximal stabilization.

In the next assay the target is T1, HLA-A1 (Homo sapiens, UniProt P04439, A114D/A174V/A182V/D101N/D185E/E176A/E190D/L180R/Q94H/R68K/S129P/T187R/V100A/V91M/W191G).
T1 construct: empty HLA molecules released upon cell lysis, from the TAP-deficient cell lines; endogenous in cells; host or cells: BM36.1 (TAP-defective cell line expressing HLA-A*0101 and HLA-B*3501)
The assay is described as follows: Assembly assay, HLA-A1. It counts as binding. The following applies: for EC50: Table 4, HLA-A1, read-out: C50. The protocol: as §1

A further assay concerns the target HLA-A11 (Homo sapiens, UniProt P04439, A114D/D185E/E176A/F33Y/L180Q/S129P/T187R). Briefly: Assembly assay, HLA-A11. Format: binding. The protocol: as §1
The next assay deals with HLA-B7 (Homo sapiens, UniProt P01889). Briefly: Assembly assay, HLA-B7. It counts as binding. The procedure:
as §1
Binding of survivin derived peptides to HLA-B7 The amino acid sequence of the survivin protein was screened for peptides of nine to ten amino acids, with anchor residues according to the peptide binding motif of HLA-B7. Five peptides were selected and analyzed for their ability to stabilize HLA-B7 in the assembly assay. C50 values were estimated for each peptide as the peptide concentration needed for half maximal stabilization of HLA-B7 (table 4).

Where [2] appears, read: HLA-A3, nine samples from melanoma patients (five PBL and four TIL).

On to `CC(C)C[C@H](NC(=O)[C@@H](N)[C@@H](C)O)C(=O)N1CCC[C@H]1C(=O)N1CCC[C@H]1C(=O)N[C@@H](C)C(=O)N[C@@H](Cc1c[nH]c2ccccc12)C(=O)N[C@@H](CCC(N)=O)C(=O)N1CCC[C@H]1C(=O)N[C@@H](CCCCN)C(=O)O` [Sur5K9], for which the ELISPOT response result in assay [1] (setting [2]) is “No responses were detected”. Further, on HLA-A3, the “binding to HLA-A3, in words” value is “high affinity” and the EC50 was determined as 2 µM.

For the molecule `CC[C@H](C)[C@H](NC(=O)[C@@H](N)CCCNC(=N)N)C(=O)N[C@@H](CO)C(=O)N[C@H](C(=O)N[C@@H](Cc1ccccc1)C(=O)N[C@@H](CCCCN)C(=O)N[C@@H](CC(N)=O)C(=O)N[C@@H](Cc1c[nH]c2ccccc12)C(=O)N1CCC[C@H]1C(=O)N[C@@H](CCCCN)C(=O)O)[C@@H](C)O` [Sur18K10], in assay [1] (setting [2]), the ELISPOT response entry is listed as “CTL reactivity was detected”. For the same molecule, the responding patients entry in assay [1] (HLA-A3, twenty-seven melanoma patients analyzed) was “six”. Moreover, on HLA-A3, the “binding to HLA-A3, in words” value was “high affinity” and the EC50 was found to be 0.02 µM.

Turning to `CC[C@H](C)[C@H](NC(=O)[C@H](Cc1ccccc1)NC(=O)CNC(=O)[C@H](C)NC(=O)[C@H](CCC(=O)O)NC(=O)[C@H](C)NC(=O)[C@@H](N)CCSC)C(=O)N[C@@H](Cc1c[nH]cn1)C(=O)N[C@@H](Cc1ccc(O)cc1)C(=O)O` [Sur38Y9], the EC50 on HLA-A1 was 0.8 µM.

For `CC(C)C[C@H](NC(=O)[C@H](CC(=O)O)NC(=O)[C@@H]1CCCN1C(=O)[C@H](CCC(=O)O)NC(=O)[C@H](CC(N)=O)NC(=O)[C@H](CCC(=O)O)NC(=O)[C@@H](NC(=O)[C@@H]1CCCN1)[C@@H](C)O)C(=O)N[C@@H](C)C(=O)N[C@@H](Cc1ccc(O)cc1)C(=O)O` [Sur47Y10], the EC50 at HLA-A1 was 0.4 µM.

With `CC(C)C[C@H](NC(=O)[C@@H](N)CC(C)C)C(=O)N[C@@H](CCC(N)=O)C(=O)N[C@@H](CS)C(=O)N[C@@H](Cc1ccccc1)C(=O)N[C@@H](Cc1ccccc1)C(=O)N[C@@H](CS)C(=O)N[C@@H](Cc1ccccc1)C(=O)N[C@@H](CCCCN)C(=O)O` [Sur54L2], in assay [1] (setting [2]), the ELISPOT response result is listed as “No responses were detected”. The “binding to HLA-A3, in words” value on HLA-A3 is “high affinity”.

For `CC(C)C[C@H](NC(=O)[C@H](CCC(=O)O)NC(=O)[C@H](CCC(=O)O)NC(=O)[C@H](Cc1ccccc1)NC(=O)[C@@H](N)CCC(N)=O)C(=O)N[C@H](C(=O)N[C@@H](CC(C)C)C(=O)NCC(=O)N[C@@H](CCC(=O)O)C(=O)N[C@@H](Cc1ccccc1)C(=O)O)[C@@H](C)O` [Sur92-101], on HLA-A1, the “binding to HLA-A1, in words” value is “bound with almost similar high affinity as a known positive control epitope” and the EC50 was 2 µM. For the same molecule, in assay [1] (HLA-A1, Mel.A1-2), the ELISPOT response result is recorded as “showed responses”. In addition, in assay [1] (HLA-A1, Mel.A1-3, PBL), the ELISPOT response result is given as “T-cell response”.

As to `CC(C)C[C@H](NC(=O)[C@H](CCC(=O)O)NC(=O)[C@H](CCC(=O)O)NC(=O)[C@H](CO)NC(=O)[C@@H](N)CCC(N)=O)C(=O)N[C@H](C(=O)N[C@@H](CC(C)C)C(=O)NCC(=O)N[C@@H](CCC(=O)O)C(=O)N[C@@H](Cc1ccccc1)C(=O)O)[C@@H](C)O` [Sur92S2], the EC50 at HLA-A1 was 100 µM.

In the case of `CC(C)C[C@H](NC(=O)[C@H](CCC(=O)O)NC(=O)[C@H](CCC(=O)O)NC(=O)[C@@H](NC(=O)[C@@H](N)CCC(N)=O)[C@@H](C)O)C(=O)N[C@H](C(=O)N[C@@H](CC(C)C)C(=O)NCC(=O)N[C@@H](CCC(=O)O)C(=O)N[C@@H](Cc1ccccc1)C(=O)O)[C@@H](C)O` [Sur92T2], the EC50 on HLA-A1 came to 2 µM.

As for `CC(C)C[C@H](NC(=O)[C@H](CCC(=O)O)NC(=O)[C@H](CCC(=O)O)NC(=O)[C@@H](N)Cc1ccccc1)C(=O)N[C@H](C(=O)N[C@@H](CC(C)C)C(=O)NCC(=O)N[C@@H](CCC(=O)O)C(=O)N[C@@H](Cc1ccccc1)C(=O)O)[C@@H](C)O` [Sur93-101], at HLA-A1, the “binding to HLA-A1, in words” value is on record as “low binding affinity” and the EC50 was > 100 µM. Further, in assay [1] (HLA-A1, ten melanoma patients, data not shown), the ELISPOT response result is given as “no peptide-specific responses were detected”.

For the molecule `CC(C)C[C@H](NC(=O)[C@H](CCC(=O)O)NC(=O)[C@H](CO)NC(=O)[C@@H](N)Cc1ccccc1)C(=O)N[C@H](C(=O)N[C@@H](CC(C)C)C(=O)NCC(=O)N[C@@H](CCC(=O)O)C(=O)N[C@@H](Cc1ccccc1)C(=O)O)[C@@H](C)O` [Sur93S2], at HLA-A1, the EC50 was 30 µM.

Regarding `CC(C)C[C@H](NC(=O)[C@H](CCC(=O)O)NC(=O)[C@@H](NC(=O)[C@@H](N)Cc1ccccc1)[C@@H](C)O)C(=O)N[C@H](C(=O)N[C@@H](CC(C)C)C(=O)NCC(=O)N[C@@H](CCC(=O)O)C(=O)N[C@@H](Cc1ccccc1)C(=O)O)[C@@H](C)O` [Sur93T2], at HLA-A1, the “binding to HLA-A1, in words” value was “bound with high affinity”. Besides, the EC50 on HLA-A1 was determined as 1 µM. Besides, the ELISPOT response result in assay [1] (HLA-A1, Mel.A1-2) is on record as “showed responses”; in assay [1] (HLA-A1, Mel.A1-3, PBL), “T-cell response”; in assay [1] (HLA-A1, Mel.A1-4/PBL), “responses were observed”.

With `CC(C)C[C@H](NC(=O)[C@@H](N)CC(=O)O)C(=O)N[C@@H](C)C(=O)N[C@@H](CCC(N)=O)C(=O)N[C@@H](CS)C(=O)N[C@@H](Cc1ccccc1)C(=O)N[C@@H](Cc1ccccc1)C(=O)N[C@@H](CS)C(=O)N[C@@H](Cc1ccccc1)C(=O)N[C@@H](CCCCN)C(=O)O` [Sur 53-62], the ELISPOT response entry in assay [1] (setting [2]) was “no immune responses”; in assay [1] (HLA-A11, Mel.A11-1, five blood samples over two years, data not shown) it was “strong immune response”; in assay [1] (HLA-A11, PBL from Mel.A11-1 and Mel.A11-2) it was “detect responses”; in assay [1] (HLA-A11, TIL from tumor infiltrated lymph node, Mel.A11-2), “able to detect Sur53-62 specific T-cells”. For the same molecule, the “binding to HLA-A3, in words” value at HLA-A3 was “bound weakly”. Besides, the “binding to HLA-A11, in words” value at HLA-A11 is “high affinity”.

`CC(C)C[C@H](N)C(=O)N[C@@H](C)C(=O)N[C@@H](CCC(N)=O)C(=O)N[C@@H](CS)C(=O)N[C@@H](Cc1ccccc1)C(=O)N[C@@H](Cc1ccccc1)C(=O)N[C@@H](CS)C(=O)N[C@@H](Cc1ccccc1)C(=O)N[C@@H](CCCCN)C(=O)O` [Sur 54-62]: the “binding to HLA-A11, in words” value on HLA-A11 is on record as “high affinity”.

As for `CC(C)C[C@H](NC(=O)[C@H](Cc1ccccc1)NC(=O)[C@H](CCC(=O)O)NC(=O)CNC(=O)[C@H](CC(C)C)NC(=O)[C@@H](NC(=O)[C@H](CC(C)C)NC(=O)[C@@H](N)CCC(=O)O)[C@@H](C)O)C(=O)N[C@@H](CCCCN)C(=O)O` [Sur 95-103], the ELISPOT response result in assay [1] (setting [2]) is listed as “no immune responses”. At HLA-A3, the “binding to HLA-A3, in words” value was “bound weakly” and the EC50 is > 100 µM.

For the molecule CPTENEPDL [Sur46-54], the “C50 (half maximal stabilization of HLA-B7)” value on HLA-B7 (Example 4) is “did not bind”. Besides, the EC50 at HLA-B7 (Table 4, HLA-B7, read-out: C50) is > 100 µM.

With ENEPDLAQCF [Sur49-58], the “binding to HLA-A1, in words” value at HLA-A1 is recorded as “non-binding”.

With EPDLAQCFF [Sur51-59], the “C50 (half maximal stabilization of HLA-B7)” value on HLA-B7 (Example 4) is given as “did not bind”. Also, at HLA-B7 (Table 4, HLA-B7, read-out: C50), the EC50 is > 100 µM.

As for LPPAWQPFL [Sur6-14], the EC50 on HLA-B7 (Example 4, read-out: C50 (half maximal stabilization of HLA-B7)) is > 100 µM; at HLA-B7 (Table 4, HLA-B7, read-out: C50), > 100 µM.

At HLA-B7, QPRAPIRPI [C6, reference compound] gave an EC50 of 0.1 µM.

Regarding RPPIFIRRL [C7, reference compound], the EC50 at HLA-B7 turned out to be 0.5 µM.

For the origin of these results see patent publication US20070148184A1, “Survivin-derived peptides and use thereof” (priority 2003, published 2007).
